Assay results: patent US6677466B1, “Method for stabilizing hydrogen peroxide” (DSM Fine Chemicals Austria NFG GmbH & Co KG, priority 1999, dated 2004)

Test: O2 evolution from RuO2.xH2O-catalysed decomposition of H2O2 with stabilizer
Assay type: physicochemical
Description: A 50% strength aqueous solution of H2O2 (304 mg; 4.46 mmol) was added to 454 mg (4.46 mmol) of methyl pyruvate and to 535 mg (4.46 mmol) of glyoxylic methyl ester methyl hemiacetal, respectively. In the case of methyl pyruvate, a marked evolution of heat was discovered during the addition. After one hour, the H2O2/α-keto ester mixture was mixed with 1 ml of solvent and added to a suspension of 2.5 mg of RuO2.xH2O catalyst (Aldrich) in 4 ml of solvent. The suspension was introduced into a 50 ml flask which was maintained at room temperature in a water bath.
As a comparison, a suspension of 2.5 mg of RuO2.xH2O catalyst (Aldrich) in 4 ml of solvent was combined with a 50% strength aqueous solution of H2O2 (304 mg; 4.46 mmol) and 1 ml of solvent without stabilizer.
The amount of oxygen which […] the decomposition of the hydrogen peroxide was determined as a function of time using a Brooks meter, which permitted measurement of the gas flow and of the total amount of evolved gas.
The amount of oxygen is defined here as % of the maximum amount to be calculated on the basis of stoichiometry.

Which results are given for `COC(=O)C(O)OC` (stereo not drawn) [GMHA, glyoxylic methyl ester methyl hemiacetal]?
O2 evolution V(O2) (Vmax(O2)*100%) (solv. acetic acid, t 1 min): 0%; O2 evolution V(O2) (Vmax(O2)*100%) (solv. acetic acid, t 2 min): 1%; O2 evolution V(O2) (Vmax(O2)*100%) (solv. acetic acid, t 3 min): 2%; O2 evolution V(O2) (Vmax(O2)*100%) (solv. acetic acid, t 4 min): 2%; O2 evolution V(O2) (Vmax(O2)*100%) (solv. acetic acid, t 5 min): 2%; O2 evolution V(O2) (Vmax(O2)*100%) (solv. acetic acid, t 10 min): 2%; O2 evolution V(O2) (Vmax(O2)*100%) (solv. acetic acid, t 15 min): 2%; O2 evolution V(O2) (Vmax(O2)*100%) (solv. acetic acid, t 20 min): 2%; O2 evolution V(O2) (Vmax(O2)*100%) (solv. acetic acid, t 25 min): 2%; O2 evolution V(O2) (Vmax(O2)*100%) (solv. acetic acid, t 30 min): 2%; O2 evolution V(O2) (Vmax(O2)*100%) (solv. acetic acid, t 35 min): 2%; O2 evolution V(O2) (Vmax(O2)*100%) (solv. acetic acid, t 40 min): 2%; O2 evolution V(O2) (Vmax(O2)*100%) (solv. acetone, t 1 min): 0%; O2 evolution V(O2) (Vmax(O2)*100%) (solv. acetone, t 2 min): 0%; O2 evolution V(O2) (Vmax(O2)*100%) (solv. acetone, t 3 min): 0%; O2 evolution V(O2) (Vmax(O2)*100%) (solv. acetone, t 4 min): 0%; O2 evolution V(O2) (Vmax(O2)*100%) (solv. acetone, t 5 min): 0%; O2 evolution V(O2) (Vmax(O2)*100%) (solv. acetone, t 10 min): 0%; O2 evolution V(O2) (Vmax(O2)*100%) (solv. acetone, t 15 min): 0%; O2 evolution V(O2) (Vmax(O2)*100%) (solv. acetone, t 20 min): 0%; O2 evolution V(O2) (Vmax(O2)*100%) (solv. acetone, t 25 min): 0%; O2 evolution V(O2) (Vmax(O2)*100%) (solv. acetone, t 30 min): 0%; O2 evolution V(O2) (Vmax(O2)*100%) (solv. acetone, t 35 min): 0%; O2 evolution V(O2) (Vmax(O2)*100%) (solv. acetone, t 40 min): 0%; O2 evolution V(O2) (Vmax(O2)*100%) (solv. acetonitrile, t 1 min): 3%; O2 evolution V(O2) (Vmax(O2)*100%) (solv. acetonitrile, t 2 min): 3%; O2 evolution V(O2) (Vmax(O2)*100%) (solv. acetonitrile, t 3 min): 3%; O2 evolution V(O2) (Vmax(O2)*100%) (solv. acetonitrile, t 4 min): 3%; O2 evolution V(O2) (Vmax(O2)*100%) (solv. acetonitrile, t 5 min): 3%; O2 evolution V(O2) (Vmax(O2)*100%) (solv. acetonitrile, t 10 min): 3%; O2 evolution V(O2) (Vmax(O2)*100%) (solv. acetonitrile, t 15 min): 3%; O2 evolution V(O2) (Vmax(O2)*100%) (solv. acetonitrile, t 20 min): 3%; O2 evolution V(O2) (Vmax(O2)*100%) (solv. acetonitrile, t 25 min): 3%; O2 evolution V(O2) (Vmax(O2)*100%) (solv. acetonitrile, t 30 min): 3%; O2 evolution V(O2) (Vmax(O2)*100%) (solv. acetonitrile, t 35 min): 3%; O2 evolution V(O2) (Vmax(O2)*100%) (solv. acetonitrile, t 40 min): 3%; O2 evolution V(O2) (Vmax(O2)*100%) (solv. ethyl acetate, t 1 min): 3%; O2 evolution V(O2) (Vmax(O2)*100%) (solv. ethyl acetate, t 2 min): 5%; O2 evolution V(O2) (Vmax(O2)*100%) (solv. ethyl acetate, t 3 min): 6%; O2 evolution V(O2) (Vmax(O2)*100%) (solv. ethyl acetate, t 4 min): 7%; O2 evolution V(O2) (Vmax(O2)*100%) (solv. ethyl acetate, t 5 min): 8%; O2 evolution V(O2) (Vmax(O2)*100%) (solv. ethyl acetate, t 10 min): 9%; O2 evolution V(O2) (Vmax(O2)*100%) (solv. ethyl acetate, t 15 min): 9%; O2 evolution V(O2) (Vmax(O2)*100%) (solv. ethyl acetate, t 20 min): 9%; O2 evolution V(O2) (Vmax(O2)*100%) (solv. ethyl acetate, t 25 min): 9%; O2 evolution V(O2) (Vmax(O2)*100%) (solv. ethyl acetate, t 30 min): 9%; O2 evolution V(O2) (Vmax(O2)*100%) (solv. ethyl acetate, t 35 min): 9%; O2 evolution V(O2) (Vmax(O2)*100%) (solv. ethyl acetate, t 40 min): 9%; O2 evolution V(O2) (Vmax(O2)*100%) (solv. methanol, t 1 min): 0%; O2 evolution V(O2) (Vmax(O2)*100%) (solv. methanol, t 2 min): 0%; O2 evolution V(O2) (Vmax(O2)*100%) (solv. methanol, t 3 min): 0%; O2 evolution V(O2) (Vmax(O2)*100%) (solv. methanol, t 4 min): 0%; O2 evolution V(O2) (Vmax(O2)*100%) (solv. methanol, t 5 min): 0%; O2 evolution V(O2) (Vmax(O2)*100%) (solv. methanol, t 10 min): 0%; O2 evolution V(O2) (Vmax(O2)*100%) (solv. methanol, t 15 min): 0%; O2 evolution V(O2) (Vmax(O2)*100%) (solv. methanol, t 20 min): 0%; O2 evolution V(O2) (Vmax(O2)*100%) (solv. methanol, t 25 min): 0%; O2 evolution V(O2) (Vmax(O2)*100%) (solv. methanol, t 30 min): 0%; O2 evolution V(O2) (Vmax(O2)*100%) (solv. methanol, t 35 min): 0%; O2 evolution V(O2) (Vmax(O2)*100%) (solv. methanol, t 40 min): 0%; O2 evolution V(O2) (Vmax(O2)*100%) (solv. t-butanol, t 1 min): 0%; O2 evolution V(O2) (Vmax(O2)*100%) (solv. t-butanol, t 2 min): 0%; O2 evolution V(O2) (Vmax(O2)*100%) (solv. t-butanol, t 3 min): 0%; O2 evolution V(O2) (Vmax(O2)*100%) (solv. t-butanol, t 4 min): 0%; O2 evolution V(O2) (Vmax(O2)*100%) (solv. t-butanol, t 5 min): 0%; O2 evolution V(O2) (Vmax(O2)*100%) (solv. t-butanol, t 10 min): 0%; O2 evolution V(O2) (Vmax(O2)*100%) (solv. t-butanol, t 15 min): 0%; O2 evolution V(O2) (Vmax(O2)*100%) (solv. t-butanol, t 20 min): 0%; O2 evolution V(O2) (Vmax(O2)*100%) (solv. t-butanol, t 25 min): 0%; O2 evolution V(O2) (Vmax(O2)*100%) (solv. t-butanol, t 30 min): 0%; O2 evolution V(O2) (Vmax(O2)*100%) (solv. t-butanol, t 35 min): 0%; O2 evolution V(O2) (Vmax(O2)*100%) (solv. t-butanol, t 40 min): 0%; O2 evolution V(O2) (Vmax(O2)*100%) (solv. water, t 1 min): 3%; O2 evolution V(O2) (Vmax(O2)*100%) (solv. water, t 2 min): 4%; O2 evolution V(O2) (Vmax(O2)*100%) (solv. water, t 3 min): 5%; O2 evolution V(O2) (Vmax(O2)*100%) (solv. water, t 4 min): 6%; O2 evolution V(O2) (Vmax(O2)*100%) (solv. water, t 5 min): 10%; O2 evolution V(O2) (Vmax(O2)*100%) (solv. water, t 10 min): 13%; O2 evolution V(O2) (Vmax(O2)*100%) (solv. water, t 15 min): 13%; O2 evolution V(O2) (Vmax(O2)*100%) (solv. water, t 20 min): 13%; O2 evolution V(O2) (Vmax(O2)*100%) (solv. water, t 25 min): 13%; O2 evolution V(O2) (Vmax(O2)*100%) (solv. water, t 30 min): 13%; O2 evolution V(O2) (Vmax(O2)*100%) (solv. water, t 35 min): 13%; O2 evolution V(O2) (Vmax(O2)*100%) (solv. water, t 40 min): 13%
